The values that follow come from ChEMBL document CHEMBL1135832, “Syntheses, calcium channel agonist-antagonist modulation activities, nitric oxide release, and voltage-clamp studies of 2-nitrooxyethyl 1,4-dihydro- 2,6-dimethyl-3-nitro-4-(2-trifluoromethylphenyl)pyridine-5-carboxylate enantiomers” (J Med Chem, 2002).

Holding throughout (type): functional
The species entered for assay [1] is Cavia porcellus. Put plainly: In vitro NO ([…]) release by nitrite quanititation using Griess reaction. In general terms: Griess reagent forms a coloured azo dye with nitrite.
The species named for assay [2] is Cavia porcellus. Put plainly: In vitro calcium channel modulating activity in guinea pig left atrium (GPLA). The note with it: Cardiac atrium.
The species named for assay [3] is Cavia porcellus. The experiment in a line: In vitro NO ([…]) release by nitrite quanititation using Griess reaction without N-acetyl-cysteamine.
For assay [4], the species on record is Cavia porcellus. The experiment in a line: In vitro NO ([…]) release by nitrite quanititation using Griess reaction in presence of N-acetyl-cysteamine.

What is called IC50 is the concentration that gives 50% inhibition.

In the case of `CC1=NC(C)=C([N+](=O)[O-])[C@@H](c2ccccc2C(F)(F)F)/C1=C(\O)OCCO[N+](=O)[O-]`, the “% of NO release” value in the assay listed under Cavia porcellus [1] is 1.09. As for `CC1=NC(C)=C([N+](=O)[O-])[C@H](c2ccccc2C(F)(F)F)/C1=C(\O)OCCO[N+](=O)[O-]`, in the assay filed under Cavia porcellus [2], the IC50 was found to be 16 µM. For the same compound, the “% of NO release” value in the assay filed under Cavia porcellus [1] came out at 2.7.

As for `O=[N+]([O-])OCC(CO[N+](=O)[O-])O[N+](=O)[O-]` [NITROGLYCERIN], the “% of NO release” value in the assay filed under Cavia porcellus [3] worked out at 0.18; in the assay listed under Cavia porcellus [4] it was 5.3.
